Earlier results, collected in US10537125B2, “Chlorine dioxide gas releasing package label insert for enhancing microbial safety of food” (priority 2016, dated 2020).

Tests used:
Salmonella [1] = conditions: constant ClO2 0.5 mg/L air for 15, 30, and 60 min
Salmonella [2] = conditions: one-time application, treatment time 6 min to 120 min
[3] = at 20° C. and 760 mm Hg

For `[O][Cl+][O-]` [ClO2, chlorine dioxide], the “reduction of Salmonella on mung bean sprouts” value (Salmonella [1]) is listed as “up to 4 log CFU Salmonella/g”, the “Salmonella inactivation range reported by others” value (Salmonella [2]) is listed as 1.54-5.15 log and the solubility in water [3] is listed as “about 70 g/L”.
